Consider two sequences from patent US10058587B2, “Peptide composition for cancer treatment by inhibiting TRPV6 calcium channel activity” (priority 2008, dated 2018).

Where no end group is shown, it is not given here.

Assay [1] concerns mealworm larvae. Put plainly: Mealworm larva paralytic bioassay. It counts as in vivo. To be noted: for larvae paralyzed: 20 nmole/100 mg mass; for paralysis in the mealworm larva model: molar equivalent doses (20 nanomole/100 mg larva). The source says: To show this, the mealworm larva paralytic bioassay reported previously (U.S. Pat. No. 7,119,168) was used. Animals from a mealworm colony were arbitrarily selected and placed in groups (treatment and control). The animals were weighed to allow calculation of equivalent doses. The treatment was with either SorC13 or SorC27 dissolved in buffered insect Ringer's solution. The control was injection was an equivalent volume of insect Ringer's (NaCl; 10.40 g; KCl, 0.32 g; CaCl2, 0.48 g; NaHCO3, 0.32 g dissolved in 1 L of Millipore sterile water, pH 7.4). Peptide formulations were: SorC27 solutions, prepared at 1.0 mg/100 uL insect Ringer's (10 ug/uL, […], MW=2957); and SorC13, prepared at 0.5 mg/100 uL (5 ug/uL, […], MW=1566). The doses were 50 ug SorC27 per 100 mg of animal mass and 25 ug SorC13 per 100 mg of animal mass. Peptide solutions and control saline were injected dorsally at the fourth segment from the head, just under the integumen. Animals were gently ‘tail tweaked’ with forceps to trigger the escape reflex reaction and scored on time-to-effect, duration of effect and intensity of effect.

Assay [2] has as its system SKOV3 ovarian cancer cell line. Put plainly: Induction of apoptosis (APO-ONE caspase 3/7) and cell viability (CellTiter Blue). It counts as cell-based, human. Details: key to Decline in cell viability: decreased (+); or not (−). To be noted: for apoptosis (treatment:control ratio) compared with CAT cocktail: CAT = 10 uM Paclitaxel, 20 mM carboplatin. The protocol:
SKOV-3 was cultured in […] medium supplemented with 1.5 mM L-glutamine, 2.2 g/L sodium bicarbonate and 10% (v/v) fetal bovine serum.
(§1) The levels of apoptotic induction and cell viability were determined by multiplexing the measurements for single samples. CellTiter Blue and APO-ONE assay systems from Promega allows the determination of cell viability correlated to cell number, and induction of apoptosis. This protocol uses a fluorgenic peptide that contains a peptide recognition-sequence for caspase 3 and caspase 7, […] proteolytic enzymes of the apoptosis cascade. The CellTiter Blue reagent was added to wells in a 96-well plate containing cells under test, immediately after addition of peptide solution or vehicle. About 5000 cells were plated into the wells the day before. At the chosen time (Day 1, Day 2 etc.) the fluorescence was measured at 590 nm (emission) after excitation at 560 nm. The caspase 3/7 activity was measured (485 nm Ex/527 nm Em) in the same wells after adding 120 uL of the Apo-ONE reagent, freeze fracturing at −80° C. for 1 hr, and incubating for 1 hr at room temperature.
(§2) For this work, the concentrations of SorC13 and SorC27 used were 0 uM, 1 uM, 10 uM and 100 uM. The experiments extended over a 5 to 7 day period. All measurements were done in quadruplicate with both a blank (no cells) and control (vehicle, no peptide) used to correct the test measurements. The time-response data, and the dose-response data were plotted as means±standard error of the mean. Any statistical comparisons were done with the Student's t-test or by ANOVA analysis over the dose course. The level of statistical significance was considered to be the 95% confidence interval (i.e., p≤0.05).
To compare the effect of the two SorC-peptides against the gold-standard treatment for ovarian cancers SorC13 or SorC27 was compared to treatment with a carboplatin and taxol (CAT) cocktail (10 uM Paclitaxel, 20 mM carboplatin) using the APO-ONE assay, which measures the combined activities of caspase 3 and caspase 7. Because of the mixed treatment (CAT), the effects were compared in terms of the ratio of treatment:control. If no effect was noted then the ratio=1. Comparisons of the treatment:control ratios were examined with the Student's t-test at a confidence level of 95%. Ratios of larger than a value of unity indicated a positive effect. The effects are illustrated in FIG. 5.

In the next assay the test system is MV-4-11. Nature of the assay: Apoptosis and cell viability in AML cell line (Example 13). The class given is cell-based, human. The conditions noted are these: 0, 10 and 100 uM, 5 to 7 days. The protocol: For this work, the concentrations of SorC13 and SorC27 used are 0 uM, 10 uM and 100 uM. The experiments extend over a 5 to 7 day period. All measurements are done in quadruplicate with both a blank (no cells) and control (vehicle, no peptide) used to correct the test measurements. The time-response data, and the dose-response data are plotted as means±standard error of the mean.
The cell line MV-4-11 (from ATCC […]) is grown under the recommended conditions and in culture media recommended by ATCC. The cell lines were cultured under sterile conditions at 37° C., in a humidified 5% CO2 atmosphere.
Induction of apoptosis and attendant decrease is observed in cell viability in the cancer cell lines. From the large increases in the activities of the caspase3/7 activity, it is clear that there is a time dependent effect and a dose dependent effect on the induction of apoptosis.

The test system of assay [3] is MCF 12A non-cancerous breast cell line. Put plainly: Induction of apoptosis (APO-ONE caspase 3/7) and cell viability (CellTiter Blue). The class given is cell-based, human. Details: key to Decline in cell viability: cell viability decreased (+); or not (−). As for the experimental part:
(§3) MCF-10A, MCF-12A were cultured in 50% DMEM plus 50% Ham's F12 modified with 2 mM L-glutamine, 1 mM sodium pyruvate, 0.01 mg/mL bovine insulin, 500 ng/mL hydrocortisone, 50 ug/mL of penicillin and streptomycin. The combined medium was supplemented with 5% (v/v) fetal bovine serum.
as §1, §2
(Alamar Blue is a resazurin reagent that responds to reducing activity.)

In assay [4] the test system is MCF 10A non-cancerous breast cell line. The description is as above. It counts as cell-based, human. Details: key to Decline in cell viability: cell viability decreased (+); or not (−). The protocol:
as §3, §1, §2

Assay [5] deals with MCF 7 breast cancer cell line. Described as above. The class given is cell-based, human. The protocol: (§4) MCF-7, MDA-MB-231, MDA-MB-415, MDA-MB-468 were grown in DMEM modified with 10% (v/v) fetal bovine serum, 2 mM L-glutamine and 50 ug/mL each of penicillin and streptomycin.
as §1, §2
To benchmark the effect of both C-type peptides to the gold-standard treatment presently used against breast cancer (Paclitaxel), SorC13, SorC27 and Paclitaxel (10 uM) were compared. Both the APO-ONE assay (Promega) and the CellTiter Blue were used on the panel of breast cancer cell lines. The data were compared directly in terms of mean response and tested for significant difference.

In assay [6] the test system is mealworm larvae. Nature of the assay: Mealworm larva paralytic bioassay. It counts as in vivo.
For assay [7], the system named is MDA-MB-468 (MB 468) breast cancer cell line. Nature of the assay: Induction of apoptosis (APO-ONE caspase 3/7) and cell viability (CellTiter Blue). The class given is cell-based, human. As for the experimental part: as §4, §1, §2

Take EGKLSSNDTEGGLCKEFLHPSKVDLPR [SorC27]: the larvae paralyzed in the assay with mealworm larvae [1] (time 0 min), in the assay with mealworm larvae [1] (time 2 min) and in the assay on mealworm larvae [1] (time 30 min) was 0/4 throughout. Besides, the “paralysis in the mealworm larva model” value with mealworm larvae [1] was “no evidence of paralysis”. Besides, in assay [2], the “apoptosis (treatment:control ratio) compared with CAT cocktail” value is “produced apoptosis sooner and more intensely than the CAT cocktail”. Besides, the “Apoptosis Index (1 = no effect)” value in assay [2] (Day 2, SorC27 10 uM) is reported as 2.7; in assay [2] (Day 2, SorC27 100 uM), 1.5; in assay [2] (Day 3, SorC27 1 uM) it was 1.7; in assay [2] (Day 3, SorC27 10 uM), 2.4; in assay [2] (Day 3, SorC27 100 uM), 2.7; in assay [3] (SorC27 100 μM), 1.0. Further, the “Apoptosis Index (1 = no effect)” value was 1.0 in assay [4] (SorC27 100 μM); 1.0 in assay [5] (Day 2, SorC27 10 μM); 2.8 in assay [5] (Day 2, SorC27 100 μM); 2.9 in assay [5] (Day 3, SorC27 10 μM); 4.6 in assay [5] (Day 3, SorC27 100 μM); 1.1 in assay [7] (Day 3, SorC27 10 μM). In assay [7] (Day 3, SorC27 100 μM), the “Apoptosis Index (1 = no effect)” value was found to be 1.2. Further, the results for the “Decline in cell viability” value in assay [2] (SorC27), in assay [3] (SorC27 100 μM) and in assay [4] (SorC27 100 μM) were “+”, “−” and “−”, respectively. Besides, in the assay with MV-4-11, the “induction of apoptosis and cell viability” value is “induces apoptosis and decreases cell viability”. The “induction of apoptosis compared with Paclitaxel (10 uM)” value in assay [5] (SorC27 10 uM) is “more effective at inducing a faster and more intense apoptotic cascade than Paclitaxel”. Further, the “Physiol. effects in vivo (mealworm larvae); 5 mg/kg” value in the assay with mealworm larvae [6] is recorded as “Not paralytic”.
Turning to KEFLHPSKVDLPR [SorC13, KEFLHPSKVDLPR], the larvae paralyzed in the assay on mealworm larvae [1] (time 0 min), with mealworm larvae [1] (time 2 min) and in the assay with mealworm larvae [1] (time 30 min) was 0/4 each time. In addition, the “paralysis in the mealworm larva model” value in the assay on mealworm larvae [1] was “no evidence of paralysis”. Further, the “apoptosis (treatment:control ratio) compared with CAT cocktail” value in assay [2] is “produced earlier and more intense apoptosis cascade than the CAT cocktail”. Moreover, the “Apoptosis Index (1 = no effect)” value in assay [2] (Day 4, SorC13 100 uM) turned out to be 2.2; in assay [2] (Day 5, SorC13 100 uM) it was 2.7; in assay [3] (SorC13 100 uM), 1.0; in assay [4] (SorC13 100 uM), 1.0; in assay [5] (SorC13 1 uM), 1.2; in assay [5] (SorC13 10 uM), 1.1. Moreover, the “Apoptosis Index (1 = no effect)” value in assay [5] (SorC13 100 uM) came out at 2.4; in assay [7] (SorC13 1 uM), 2.7; in assay [7] (SorC13 10 uM), 3.3; in assay [7] (SorC13 100 uM), 2.7. The “Decline in cell viability” value in assay [2] (Day 5, SorC13 100 uM) is recorded as “+”; in assay [3] (SorC13 100 uM), “−”; in assay [4] (SorC13 100 uM) it was “−”. In addition, in the assay with MV-4-11, the “induction of apoptosis and cell viability” value was “induces apoptosis and decreases cell viability”. Further, the “Physiol. effects in vivo (mealworm larvae); 5 mg/kg” value in the assay with mealworm larvae [6] is given as “Not paralytic”.
